Results on two compounds are retold here after ChEMBL document CHEMBL4630901 (2021).

Active and inactive are the calls of the source. No cut-off for these calls is given here.

One may read the Ki as the dissociation constant of the complex between target and ligand, obtained from inhibition or displacement. The inhibition is the drop in the measured response relative to a control, in per cent. Broadly, the IC50 is the concentration that gives 50% inhibition.

The target in test [1] is Alpha-2A adrenergic receptor (Homo sapiens, UniProt P08913). In words: GPCRScan assay: inhibition of Alpha2A. Also noted: radioligand conc. used [nm] 1.0 – 3.0, parental cells stable MDCK.
Test [2] addresses Alpha-2B adrenergic receptor (Homo sapiens) (UniProt P18089). The settings on record: Compound concentration 10.0 uM.
For test [3], the target named is Sodium-dependent noradrenaline transporter (Homo sapiens) (UniProt P23975). The settings on record: Compound concentration 10.0 uM.
Sodium-dependent noradrenaline transporter (Homo sapiens), sequence (P23975 whole entry): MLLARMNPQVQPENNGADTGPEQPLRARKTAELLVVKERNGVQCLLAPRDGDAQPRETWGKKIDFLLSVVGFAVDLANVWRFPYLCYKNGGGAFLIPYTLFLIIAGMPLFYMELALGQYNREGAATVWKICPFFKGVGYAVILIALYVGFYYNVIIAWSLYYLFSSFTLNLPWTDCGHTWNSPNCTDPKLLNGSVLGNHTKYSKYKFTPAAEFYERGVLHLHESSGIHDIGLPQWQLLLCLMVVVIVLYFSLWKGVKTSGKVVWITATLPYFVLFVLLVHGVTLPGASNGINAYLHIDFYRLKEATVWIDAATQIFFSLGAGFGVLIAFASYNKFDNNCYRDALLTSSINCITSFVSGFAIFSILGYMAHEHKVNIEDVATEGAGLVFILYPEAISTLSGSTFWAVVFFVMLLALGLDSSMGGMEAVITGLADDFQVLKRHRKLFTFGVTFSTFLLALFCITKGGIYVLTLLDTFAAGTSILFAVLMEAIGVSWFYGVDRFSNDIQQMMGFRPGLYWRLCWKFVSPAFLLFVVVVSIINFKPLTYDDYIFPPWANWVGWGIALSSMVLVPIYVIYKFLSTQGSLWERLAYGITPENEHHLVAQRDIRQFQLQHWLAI
The target of test [4] is Prostaglandin E2 receptor EP4 subtype (Homo sapiens) (UniProt P35408). In words: Inhibition of Prostanoid EP4 at 10 µM in the Eurofins-Panlabs radioligand binding assay (Eurofins_assay_268420). On the set-up: ligand concentration 1 nM.
Prostaglandin E2 receptor EP4 subtype (Homo sapiens), sequence (P35408 whole entry): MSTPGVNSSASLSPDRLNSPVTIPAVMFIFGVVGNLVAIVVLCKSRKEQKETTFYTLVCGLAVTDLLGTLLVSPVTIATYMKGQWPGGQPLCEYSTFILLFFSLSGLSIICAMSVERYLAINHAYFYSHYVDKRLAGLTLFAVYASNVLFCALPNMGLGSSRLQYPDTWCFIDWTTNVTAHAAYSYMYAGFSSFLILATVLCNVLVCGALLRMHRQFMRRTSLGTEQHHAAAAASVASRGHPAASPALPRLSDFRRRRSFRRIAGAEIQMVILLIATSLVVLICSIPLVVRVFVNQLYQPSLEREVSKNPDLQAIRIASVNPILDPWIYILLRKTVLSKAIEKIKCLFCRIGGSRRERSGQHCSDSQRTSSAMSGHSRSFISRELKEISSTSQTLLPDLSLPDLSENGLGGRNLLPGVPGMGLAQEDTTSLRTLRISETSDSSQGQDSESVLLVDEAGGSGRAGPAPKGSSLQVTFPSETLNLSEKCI
Test [5] addresses Endothelin-1 receptor (Homo sapiens) (UniProt P25101). The settings on record: Compound concentration 10.0 uM.
Test [6] addresses Type-2 angiotensin II receptor (Homo sapiens) (UniProt P50052). The settings on record: Compound concentration 10.0 uM.
For a further test, the species on record is Oryctolagus cuniculus. In words: Inhibition of Purinergic P2X at 10 µM in the Eurofins-Panlabs radioligand binding assay (Eurofins_assay_268700). Format: protein assay. The settings on record: Compound concentration 10.0 uM.
The target in test [7] is T1, Alpha-2C adrenergic receptor (Homo sapiens) (UniProt P18825).
T1 sequence (whole entry): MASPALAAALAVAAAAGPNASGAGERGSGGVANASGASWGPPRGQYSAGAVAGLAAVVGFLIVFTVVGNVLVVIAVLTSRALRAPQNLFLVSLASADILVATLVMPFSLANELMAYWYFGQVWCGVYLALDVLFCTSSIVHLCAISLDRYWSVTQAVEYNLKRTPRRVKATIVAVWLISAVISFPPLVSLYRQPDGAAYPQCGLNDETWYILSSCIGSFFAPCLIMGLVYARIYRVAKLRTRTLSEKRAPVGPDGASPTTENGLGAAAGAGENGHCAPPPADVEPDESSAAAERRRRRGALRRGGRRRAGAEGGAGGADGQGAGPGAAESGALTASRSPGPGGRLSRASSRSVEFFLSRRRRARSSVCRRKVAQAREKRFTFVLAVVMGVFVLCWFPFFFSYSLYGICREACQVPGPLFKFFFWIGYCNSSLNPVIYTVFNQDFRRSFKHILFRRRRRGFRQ
The settings on record: Compound concentration 10.0 uM.

Test [8] has as its target D(2) dopamine receptor (Homo sapiens) (UniProt P14416). The settings on record: Compound concentration 10.0 uM.
The target in test [9] is Delta-type opioid receptor (Homo sapiens) (UniProt P41143). The following applies: Compound concentration 10.0 uM.
Delta-type opioid receptor (Homo sapiens), sequence (P41143 whole entry): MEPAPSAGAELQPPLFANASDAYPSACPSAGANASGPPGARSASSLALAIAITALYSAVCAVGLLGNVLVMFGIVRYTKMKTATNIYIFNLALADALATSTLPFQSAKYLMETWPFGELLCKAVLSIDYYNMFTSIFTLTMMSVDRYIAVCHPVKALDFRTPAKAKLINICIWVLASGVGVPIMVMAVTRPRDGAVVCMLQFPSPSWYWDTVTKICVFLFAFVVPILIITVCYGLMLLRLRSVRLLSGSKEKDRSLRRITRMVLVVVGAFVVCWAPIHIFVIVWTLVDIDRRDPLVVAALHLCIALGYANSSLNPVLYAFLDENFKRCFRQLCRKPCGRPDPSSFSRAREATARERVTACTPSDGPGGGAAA
Test [10] concerns the target T2, Alpha-2A adrenergic receptor (Homo sapiens) (UniProt P08913).
T2 sequence (whole entry): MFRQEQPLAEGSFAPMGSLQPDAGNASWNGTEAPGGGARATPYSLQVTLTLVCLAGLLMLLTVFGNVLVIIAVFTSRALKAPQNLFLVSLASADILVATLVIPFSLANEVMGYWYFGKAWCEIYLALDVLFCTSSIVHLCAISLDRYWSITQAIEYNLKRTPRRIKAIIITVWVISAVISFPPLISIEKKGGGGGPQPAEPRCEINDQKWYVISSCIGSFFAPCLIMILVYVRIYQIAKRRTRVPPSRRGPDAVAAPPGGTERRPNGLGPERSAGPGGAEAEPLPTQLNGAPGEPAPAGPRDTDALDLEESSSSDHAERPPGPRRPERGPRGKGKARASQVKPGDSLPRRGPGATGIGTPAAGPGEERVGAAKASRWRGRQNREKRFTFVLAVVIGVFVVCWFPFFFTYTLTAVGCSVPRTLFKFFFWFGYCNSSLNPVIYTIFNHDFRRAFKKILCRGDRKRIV
The following applies: Compound concentration 10.0 uM.

In test [11] the target is Prostaglandin E2 receptor EP2 subtype (Homo sapiens) (UniProt P43116). In words: Prostanoid EP2 Eurofins-Panlabs radioligand binding assay. Also noted: ligand concentration 4 nM.
Prostaglandin E2 receptor EP2 subtype (Homo sapiens), sequence (P43116 whole entry): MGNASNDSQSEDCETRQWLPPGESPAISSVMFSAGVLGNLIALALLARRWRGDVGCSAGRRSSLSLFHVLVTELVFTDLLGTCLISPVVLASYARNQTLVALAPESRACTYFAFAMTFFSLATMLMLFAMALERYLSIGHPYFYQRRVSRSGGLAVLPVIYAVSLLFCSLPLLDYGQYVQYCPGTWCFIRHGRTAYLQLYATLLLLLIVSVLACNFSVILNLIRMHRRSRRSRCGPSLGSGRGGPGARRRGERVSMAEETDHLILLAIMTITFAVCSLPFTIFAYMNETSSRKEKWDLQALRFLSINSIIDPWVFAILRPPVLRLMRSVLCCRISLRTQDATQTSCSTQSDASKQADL
The target of test [12] is Sodium-dependent noradrenaline transporter (Homo sapiens) (UniProt P23975). The settings on record: Compound concentration 10.0 uM. This is another data set of the same source.
Test [13] concerns the target Prostaglandin F2-alpha receptor (Mus musculus, UniProt P43117). In words: Bayer inhouse assay (mouse).
The target in test [14] is Beta-3 adrenergic receptor (Homo sapiens) (UniProt P13945). The settings on record: Compound concentration 10.0 uM.
Beta-3 adrenergic receptor (Homo sapiens), sequence (P13945 whole entry, looked up): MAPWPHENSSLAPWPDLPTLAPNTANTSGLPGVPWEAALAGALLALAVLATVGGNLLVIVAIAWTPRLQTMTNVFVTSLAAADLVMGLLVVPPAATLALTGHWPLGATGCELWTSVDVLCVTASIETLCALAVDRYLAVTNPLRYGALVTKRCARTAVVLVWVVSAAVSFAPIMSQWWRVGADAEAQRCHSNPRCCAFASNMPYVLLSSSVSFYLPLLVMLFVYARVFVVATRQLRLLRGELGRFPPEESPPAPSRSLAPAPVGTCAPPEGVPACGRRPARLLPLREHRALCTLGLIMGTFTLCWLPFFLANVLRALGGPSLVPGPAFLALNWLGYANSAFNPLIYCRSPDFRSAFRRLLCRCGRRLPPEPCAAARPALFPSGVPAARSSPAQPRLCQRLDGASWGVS
Test [15] has as its target Type-1 angiotensin II receptor (Homo sapiens) (UniProt P30556). The following applies: Compound concentration 10.0 uM.
The target in test [16] is T3, Muscarinic acetylcholine receptor M1 (Homo sapiens) (UniProt P11229).
T3 sequence (whole entry): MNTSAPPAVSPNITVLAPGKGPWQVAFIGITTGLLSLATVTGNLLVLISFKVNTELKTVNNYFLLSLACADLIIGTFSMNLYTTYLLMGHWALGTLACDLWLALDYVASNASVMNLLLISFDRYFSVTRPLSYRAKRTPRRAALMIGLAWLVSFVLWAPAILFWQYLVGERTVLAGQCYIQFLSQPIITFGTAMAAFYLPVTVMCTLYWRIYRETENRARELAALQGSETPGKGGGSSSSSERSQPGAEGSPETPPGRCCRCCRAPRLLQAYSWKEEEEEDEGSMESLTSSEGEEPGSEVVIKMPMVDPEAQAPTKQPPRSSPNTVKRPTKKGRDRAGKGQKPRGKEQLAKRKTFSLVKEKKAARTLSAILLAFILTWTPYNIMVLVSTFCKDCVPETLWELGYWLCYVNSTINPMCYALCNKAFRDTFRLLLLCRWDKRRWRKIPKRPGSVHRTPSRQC
The settings on record: Compound concentration 10.0 uM.

For test [17], the target named is T4, Muscarinic acetylcholine receptor M4 (Homo sapiens) (UniProt P08173).
T4 sequence (whole entry): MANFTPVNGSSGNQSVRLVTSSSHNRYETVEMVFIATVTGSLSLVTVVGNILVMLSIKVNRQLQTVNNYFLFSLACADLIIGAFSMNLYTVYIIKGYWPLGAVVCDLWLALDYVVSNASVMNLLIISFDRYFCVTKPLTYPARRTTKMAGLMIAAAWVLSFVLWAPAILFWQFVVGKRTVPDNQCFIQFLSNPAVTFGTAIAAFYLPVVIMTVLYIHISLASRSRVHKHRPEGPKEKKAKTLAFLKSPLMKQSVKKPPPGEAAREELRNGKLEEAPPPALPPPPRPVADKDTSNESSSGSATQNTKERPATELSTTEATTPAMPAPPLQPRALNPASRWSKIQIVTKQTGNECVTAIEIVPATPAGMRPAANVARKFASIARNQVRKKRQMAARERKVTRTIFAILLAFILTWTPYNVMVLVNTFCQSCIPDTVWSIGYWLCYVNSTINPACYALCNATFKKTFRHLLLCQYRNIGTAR
The settings on record: Compound concentration 10.0 uM.

Where [18] appears, read: Compound concentration 0.001 uM.

Type-1 angiotensin II receptor (Homo sapiens), sequence (P30556 whole entry): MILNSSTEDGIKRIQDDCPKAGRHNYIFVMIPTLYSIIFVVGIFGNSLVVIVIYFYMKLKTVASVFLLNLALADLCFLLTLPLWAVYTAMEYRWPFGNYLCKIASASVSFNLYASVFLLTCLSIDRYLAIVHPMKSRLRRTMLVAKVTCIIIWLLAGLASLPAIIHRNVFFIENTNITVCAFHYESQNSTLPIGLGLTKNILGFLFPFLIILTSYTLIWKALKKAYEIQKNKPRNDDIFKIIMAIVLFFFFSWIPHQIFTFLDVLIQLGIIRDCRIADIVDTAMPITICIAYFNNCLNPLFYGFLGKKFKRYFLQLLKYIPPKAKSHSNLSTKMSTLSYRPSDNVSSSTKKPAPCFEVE
Endothelin-1 receptor (Homo sapiens), sequence (P25101 whole entry): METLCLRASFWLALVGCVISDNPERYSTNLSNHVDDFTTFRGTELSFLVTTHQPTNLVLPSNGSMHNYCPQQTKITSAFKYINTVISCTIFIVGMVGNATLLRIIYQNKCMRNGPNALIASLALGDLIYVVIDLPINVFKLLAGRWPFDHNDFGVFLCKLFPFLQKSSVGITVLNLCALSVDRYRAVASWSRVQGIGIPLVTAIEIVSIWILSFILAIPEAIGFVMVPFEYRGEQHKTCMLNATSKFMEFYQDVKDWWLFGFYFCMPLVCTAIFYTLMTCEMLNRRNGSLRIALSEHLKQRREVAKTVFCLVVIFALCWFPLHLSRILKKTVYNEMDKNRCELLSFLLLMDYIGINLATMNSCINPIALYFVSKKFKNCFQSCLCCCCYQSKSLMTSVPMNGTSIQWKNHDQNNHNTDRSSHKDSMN
D(2) dopamine receptor (Homo sapiens), sequence (P14416 whole entry): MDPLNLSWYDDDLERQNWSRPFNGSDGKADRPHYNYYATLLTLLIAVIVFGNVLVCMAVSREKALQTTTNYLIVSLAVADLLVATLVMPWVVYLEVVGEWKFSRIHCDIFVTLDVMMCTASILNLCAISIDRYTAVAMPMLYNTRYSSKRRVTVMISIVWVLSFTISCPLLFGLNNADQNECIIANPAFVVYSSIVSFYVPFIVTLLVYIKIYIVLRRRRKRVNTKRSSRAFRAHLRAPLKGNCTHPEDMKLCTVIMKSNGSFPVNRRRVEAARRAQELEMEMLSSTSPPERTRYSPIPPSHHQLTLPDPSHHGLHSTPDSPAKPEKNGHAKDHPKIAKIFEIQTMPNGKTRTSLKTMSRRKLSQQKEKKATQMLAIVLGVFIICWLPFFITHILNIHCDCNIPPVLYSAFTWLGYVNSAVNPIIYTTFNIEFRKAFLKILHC
Type-2 angiotensin II receptor (Homo sapiens), sequence (P50052 whole entry): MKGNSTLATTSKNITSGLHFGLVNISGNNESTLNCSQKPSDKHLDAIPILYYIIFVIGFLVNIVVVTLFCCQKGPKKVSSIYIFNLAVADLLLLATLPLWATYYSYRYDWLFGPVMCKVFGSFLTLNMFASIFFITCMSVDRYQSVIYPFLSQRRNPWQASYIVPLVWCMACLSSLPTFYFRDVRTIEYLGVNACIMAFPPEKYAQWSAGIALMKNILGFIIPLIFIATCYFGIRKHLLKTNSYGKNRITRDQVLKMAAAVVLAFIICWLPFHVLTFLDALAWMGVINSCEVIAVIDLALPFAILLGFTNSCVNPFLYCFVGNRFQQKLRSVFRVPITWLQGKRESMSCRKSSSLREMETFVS
Prostaglandin F2-alpha receptor, sequence (P43117 whole entry): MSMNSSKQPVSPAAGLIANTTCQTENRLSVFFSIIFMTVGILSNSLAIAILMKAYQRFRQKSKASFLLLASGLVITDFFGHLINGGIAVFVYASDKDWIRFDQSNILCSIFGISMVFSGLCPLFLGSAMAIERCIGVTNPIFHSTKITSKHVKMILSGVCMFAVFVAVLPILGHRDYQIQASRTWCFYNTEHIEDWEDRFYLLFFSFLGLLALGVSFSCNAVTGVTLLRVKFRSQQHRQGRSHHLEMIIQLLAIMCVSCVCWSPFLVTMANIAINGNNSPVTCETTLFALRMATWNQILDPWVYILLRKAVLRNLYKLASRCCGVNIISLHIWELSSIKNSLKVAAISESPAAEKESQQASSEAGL
Alpha-2B adrenergic receptor (Homo sapiens), sequence (P18089 whole entry): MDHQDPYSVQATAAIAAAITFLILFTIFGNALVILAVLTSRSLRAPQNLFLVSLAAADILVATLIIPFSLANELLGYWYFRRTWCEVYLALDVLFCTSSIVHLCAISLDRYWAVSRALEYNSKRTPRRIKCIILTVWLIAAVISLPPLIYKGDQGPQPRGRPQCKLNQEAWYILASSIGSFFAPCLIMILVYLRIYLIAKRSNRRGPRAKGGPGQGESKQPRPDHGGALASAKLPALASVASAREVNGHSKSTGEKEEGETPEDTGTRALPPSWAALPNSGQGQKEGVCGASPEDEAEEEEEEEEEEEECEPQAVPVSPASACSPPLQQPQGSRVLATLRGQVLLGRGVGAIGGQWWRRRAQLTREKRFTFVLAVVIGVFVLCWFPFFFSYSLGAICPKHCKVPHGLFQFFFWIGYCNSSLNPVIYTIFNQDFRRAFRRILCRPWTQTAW

Turning to `Cc1c(N2CCNCC2)nc2ccc(Br)cc2c1C(=O)NC[C@H](CCC(=O)O)c1ccccc1Cl` [BAY-403], the Ki in [1] was 8.47 µM. Further, the figures for the inhibition in [2] and in [3] were -3.2% and 14.1%, respectively.
Regarding `Cc1c(N2CCCC2)nc2ccc(Br)cc2c1C(=O)NC[C@H](CCC(=O)O)c1ccccc1Cl` [BAY-6672], the inhibition in test [4] (setting [18]) is -6%; in test [4] (Compound concentration 0.01 uM), -1%; in [4] (Compound concentration 0.1 uM) it was 6%; in test [4] (Compound concentration 1.0 uM) it was 17%; in test [4] (Compound concentration 10.0 uM) it was 48%; in test [5], -1%. Also, the inhibition in test [6] is 2%; in the test filed under Oryctolagus cuniculus, 25%; in test [7], 6%; in [8] it was 6%; in [9], 5%; in test [10] it was 13%. For the same compound, the inhibition in [11] (setting [18]) was 4%; in test [11] (Compound concentration 0.01 uM), -2%; in test [11] (Compound concentration 0.1 uM) it was 3%; in [11] (Compound concentration 1.0 uM) it was 15%; in test [11] (Compound concentration 10.0 uM), 4%; in [12], 32%. The inhibition in [14] is 4%; in test [15], 11%; in test [16], 9%; in [17], 6%. The IC50 in test [13] is 5 nM (active).
